Tests used:
[1] = tested on: OE33 cells; experiment: Micronuclei formation, OE33; type: cell-based, human; conditions: OE33, 45 μM Ru1, 24 h incubation
Procedure: propidium iodide (PI) is standard to quantify DNA content using flow cytometry, bleed-through of the MLCT emission of […]
To remove these artefacts, a higher concentration of Ru1 (100 µM, 10 mins) was additionally applied post-incubation and fixation to treated and control samples, acting as a substitute DNA dye instead of PI. After staining, cells were centrifuged (1000 rpm, 5 mins) and re-suspended in PBS.
Samples were analysed using a Biosciences LSRII Flow Cytometer using the FL2 channel to collect (recognisable) cell-cycle […]
profiles. […] A minimum of
10,000 cells were counted for each sample and data were processed using FloJo software.
Microscopy and immunofluorescence. […]
emission was collected from 500-530 nm to prevent spectral overlap with Ru1 emission. γH2AX foci were counted using […]
The absorbance at 540 nm was quantified by plate reader (reference wavelength 650 nm). The metabolic activity of the cell population was determined as a percentage of a negative (solvent) control. […]
Cell cultures were treated as stated, media containing detached/dead cells were removed and retained, and adherent collected by Trypsin and centrifugation. […] Trypan Blue negative and Trypan Blue positive cells were counted by haemocytometer. A minimum of 200 cells were counted for each sample. […]

[2] = cited from earlier work

For [Ru(phen)2(tpphz)]^2+ [Ru1], the “Cells with micronuclei, Percentage” value [1] is listed as 3.4% and the “log P” value [2] is listed as “–1.24”.

— publication PMC5870190, “A three-in-one-bullet for oesophageal cancer: replication fork collapse, spindle attachment failure and enhanced radiosensitivity generated by a ruthenium(II) metallo-intercalator” (Chemical Science, 2017)
